Measurements published in patent publication US20250151729A1, “METHOD FOR REDUCING OR PREVENTING EFFECT OF SALT STRESS ON PLANT” (NIPPON SODA CO., LTD, priority 2022, published 2025).

Legend:
Format in all cases: in vivo
wheat (Norin 61) [1] = assay: Test Example 1: wheat seeds on filter paper under 125 mM sodium chloride salt stress; conditions: for Foliage Length / Root Length / Root Number of roots / Foliage Recovery percentage / Root Recovery percentage: after 6 days; for Foliage Length / Root Length / Root Number of roots: average of six seeds; for Foliage Recovery percentage / Root Recovery percentage: relative to Comparative Examples 1a and 1b
Description: A flowable agent containing 10% of the compound of formula (I)-1 was diluted 103 times and 104 times with water to obtain chemical solution 1a and chemical solution 1b, respectively.
(§1) Eight layers of filter paper were placed at the center of a laboratory dish, and seeds (six seeds) of wheat (Norin 61) were placed on the filter paper. Four of these were prepared.
(1) 125 mM sodium chloride and 10 mL of chemical solution 1a were poured into the laboratory dish (Example 1a).
(2) 125 mM sodium chloride and 10 mL of chemical solution 1b were poured into the laboratory dish (Example 1b).
(3) 125 mM sodium chloride and 10 mL of water were poured into the laboratory dish (Comparative Example 1a).
(4) 10 mL of water was poured into the laboratory dish (Comparative Example 1b).
Each laboratory dish was placed in a growth chamber set at 25° C. and light/dark=16/8. After 6 days, the number of roots, the root length, and the foliage length were measured for six seeds in each of (1) to (4).
The recovery percentage was calculated from the following equation:
[formula] • X: Chemical treatment, sodium chloride applied • Y: No chemical treatment, sodium chloride applied • Z: No chemical treatment, no sodium chloride treatment

corn (P2307) = assay: Test Example 2: corn seeds on filter paper under 125 mM sodium chloride salt stress
Description: A flowable agent containing 10% of the compound of formula (I)-1 was diluted 106 times with water to obtain chemical solution 2a.
Eight layers of filter paper were placed at the center of a laboratory dish, and seeds (five seeds) of corn (P2307) were placed on the filter paper. Four of these were prepared.
(1) 125 mM sodium chloride and 10 mL of chemical solution 2a were poured into the laboratory dish (Example 2a).
(2) 125 mM sodium chloride and 10 ml of water were poured into the laboratory dish (Comparative Example 2a).
(3) 10 mL of water was poured into the laboratory dish (Comparative Example 2b).
Each laboratory dish was placed in a growth chamber set at 25° C. and light/dark=16/8. After 4 days, the number of roots, the root length, and the foliage length were measured for five seeds in each of (1) to (3). The recovery percentage was calculated in the same manner as in Test Example 1.

wheat (Norin 61) [2] = assay: Test Example 3: wheat seeds on filter paper under 125 mM sodium chloride salt stress; conditions: for Foliage Length / Root Length / Root Number of roots / Foliage Recovery percentage / Root Recovery percentage: after 4 days; for Foliage Recovery percentage / Root Recovery percentage: relative to Comparative Examples 3a and 3b
Description: A flowable agent containing 10% of the compound of formula (I)-1 was diluted 105 times and 107 times with water to obtain chemical solution 3a and chemical solution 3b, respectively.
as §1
(1) 125 mM sodium chloride and 10 mL of chemical solution 2a were poured into the laboratory dish (Example 3a).
(2) 125 mM sodium chloride and 10 mL of chemical solution 2b were poured into the laboratory dish (Example 3b).
(3) 125 mM sodium chloride and 10 ml of water were poured into the laboratory dish (Comparative Example 3a).
(4) 10 mL of water was poured into the laboratory dish (Comparative Example 3b).
Each laboratory dish was placed in a growth chamber set at 25° C. and light/dark=16/8. After 4 days, the number of roots, the root length, and the foliage length were measured for five seeds in each of (1) to (4). The recovery percentage was calculated in the same manner as in Test Example 1.

[3] = tested on: rice (Koshihikari: Oryza sativa); assay: Test Example 4: rice in Wagner pots under submerged conditions with sodium chloride aqueous solution
Description: In the middle of June, Arakidatsuchi (2 mm sieved, Akagi Engei) was placed in a Wagner pot (1/5000 a), and five grains of dried seed rice (Koshihikari: Oryza sativa) were sown at the center of the Wagner pot at a sowing depth of 3 mm to 5 mm, thus starting raising by direct seeding under submerged conditions. Individuals except for one well-grown individual from which 2 to 3 tillers appeared were cut for thinning with scissors on the 28th day after sowing. Ten pots of these were prepared.
Midseason drainage was performed on the 47th to 49th day after sowing. A flowable agent containing 10% of the compound of formula (I)-1 was diluted 103 times with water to obtain chemical solution 4. […]
The number of withered, dead stems, the number of rolled leaves, the number of crown roots, the amount of water decrease, and the length of leaf tip blight were measured on the 68th day after sowing. […]
The plant height, the number of stems, the culm length, the number of ears, the ear length, the number of whitened unhulled rice grains, the leaf color of flag leaves, and the numbers of flag leaf blights and withered, dead leaves were measured in the heading period or after. […]
The culm length, the number of ears, the ear length, the number of whitened unhulled rice grains, the leaf color of flag leaves, and the numbers of flag leaf blights and withered, dead leaves were measured on the 106th day after sowing. […]

[4] = tested on: edible corn (Idaho Sweet 88); assay: Test Example 5: corn pot test, 8 g/L sodium chloride solution poured over soil; conditions: 8 g/L NaCl
Description: (§2) (1) Example 5a: 8 g/L sodium chloride solution and chemical solution 5a were poured.
(§3) (2) Comparative Example 5a: 8 g/L sodium chloride solution and water were poured.
(§4) (3) Comparative Example 5b: Water was poured.
(§5) Plastic pots were filled with Kannami soil, and seeds of edible corn (Idaho Sweet 88) and soybean (Enrei) were sowed in their respective pots, three seeds for each pot (3 cm in depth). Each test was repeated three times. The plants were grown with subirrigation in a greenhouse.
(§6) A flowable agent containing 5% of the compound of formula (I)-1 was diluted 103 times with water to prepare chemical solution 5, and 17.3 mL of this chemical solution was poured for each pot on the 8th day after sowing (only Example 5a).
(§7) After the chemical treatment, with a pot without holes placed at the bottom, tap water was misted from above on weekends and holidays, and 50 mL of tap water was poured over the soil for each pot every weekday.
(§8) From the 11th day after sowing, 8 g/L sodium chloride solution was poured over the soil, 50 mL for each pot, every day (only Example 5a and Comparative Example 5a).
(§9) On the 19th day after sowing, the largest root length (cm), the plant height (cm), and the top and root dry weights (g) were measured.

soybean (Enrei) = assay: Test Example 5: soybean pot test, 8 g/L sodium chloride solution poured over soil; conditions: 8 g/L NaCl
Description: as §2, §3, §4, §5, §6, §7, §8, §9

[5] = tested on: wheat (variety: Kitahonami); assay: Test Example 6: wheat pot test, 8 g/L sodium chloride solution poured over soil; conditions: 8 g/L NaCl
Description: (1) Example 6a: 8 g/L sodium chloride solution and chemical solution 6a were poured.
(2) Comparative Example 6a: 8 g/L sodium chloride solution and water were poured.
(3) Comparative Example 6b: Water was poured.
Plastic pots were filled with Kannami soil, and five seeds of wheat (variety: Kitahonami) were sowed at the center of each pot (3 cm in depth). Each test was repeated three times.
After sowing, the pots were allowed to stand in a growth chamber (20° C. dark room) for 4 days and then moved to a greenhouse.
A flowable agent containing 5% of a compound of formula (I)-1 was diluted 103 times with water to prepare chemical solution 6, and 17.3 mL of this chemical solution was poured for each pot on the 7th day after sowing (only Example 6a).
From the 10th day after sowing, 8 g/L sodium chloride solution was poured over the soil, 30 mL for each pot, once a day (only Example 6a and Comparative Example 6a).
On the 17th day after sowing, the largest root length (cm), the number of rooted individuals, the plant height (cm), and the top and root dry weights (g) were measured.

[6] = 125 mM sodium chloride + 10 mL chemical solution 1a (10% flowable diluted 103 times)
[7] = 125 mM sodium chloride + 10 mL chemical solution 1b (10% flowable diluted 104 times)
[8] = 125 mM sodium chloride + chemical solution 1a (diluted 103 times)
[9] = 125 mM sodium chloride + chemical solution 1b (diluted 104 times)
[10] = 125 mM sodium chloride salt stress, vs salt stress without the compound
[11] = 125 mM sodium chloride + 10 mL chemical solution 2a (10% flowable diluted 106 times), after 4 days, average of five seeds
[12] = 125 mM sodium chloride + chemical solution 2a (diluted 106 times), after 4 days, relative to Comparative Examples 2a and 2b
[13] = 125 mM sodium chloride + 10 mL chemical solution 3a (10% flowable diluted 105 times; b105 prints chemical solution 2a)
[14] = 125 mM sodium chloride + 10 mL chemical solution 3b (10% flowable diluted 107 times; b106 prints chemical solution 2b)
[15] = 125 mM sodium chloride + chemical solution 3a (diluted 105 times)
[16] = 125 mM sodium chloride + chemical solution 3b (diluted 107 times)
[17] = 5% flowable diluted 103 times, 19th day after sowing
[18] = 17.3 mL per pot of 5% flowable diluted 103 times on 8th day, measured 19th day after sowing
[19] = vs salt stress without the compound
[20] = 5% flowable diluted 103 times, 17th day after sowing
[21] = 17.3 mL per pot of 5% flowable diluted 103 times on 7th day, measured 17th day after sowing

## Cn1nnnc1C(=NOCc1cccc(NC(=O)OC(C)(C)C)n1)c1ccccc1 [compound of formula (I)-1]
Wheat (Norin 61) [1]; [6]
  Foliage Length: 68.8 mm
  Root Length: 49.6 mm
  Root Number of roots: 5.6
Wheat (Norin 61) [1]; [7]
  Foliage Length: 64.2 mm
  Root Length: 50.2 mm
  Root Number of roots: 5.2
Wheat (Norin 61) [1]; [8]
  Foliage Recovery percentage: 31.0%
  Root Recovery percentage: 8.1%
Wheat (Norin 61) [1]; [9]
  Foliage Recovery percentage: 15.8%
  Root Recovery percentage: 9.1%
Wheat (Norin 61) [1]; [10]
  Recovery compared with Comparative Example 1a (in words): more recovery
Corn (P2307); [11]
  Foliage Length: 17.2 mm
  Root Length: 38.6 mm
  Root Number of roots: 5.2
Corn (P2307); [12]
  Foliage Recovery percentage: 28.3%
  Root Recovery percentage: 33.8%
Corn (P2307); [10]
  Recovery compared with Comparative Example 2a (in words): more recovery
Wheat (Norin 61) [2]; [13]
  Foliage Length: 23.3 mm
  Root Length: 30.8 mm
  Root Number of roots: 4.0
Wheat (Norin 61) [2]; [14]
  Foliage Length: 25.0 mm
  Root Length: 29.0 mm
  Root Number of roots: 4.0
Wheat (Norin 61) [2]; [15]
  Foliage Recovery percentage: 0.0%
  Root Recovery percentage: 41.8%
Wheat (Norin 61) [2]; [16]
  Foliage Recovery percentage: 0.0%
  Root Recovery percentage: 19.0%
Wheat (Norin 61) [2]; [10]
  Recovery in the root compared with Comparative Example 3a (in words): more recovery in the root
[3]; 2 g/L sodium chloride aqueous solution, 28 g ai per 10 a under submerged conditions
  Growth and yield measurements, effect of chemical treatment (in words): same effect was observed
[3]; 10 g/L sodium chloride aqueous solution, chemical solution 4, 56 mL per pot, 280 g ai per 10 a, on 50th day after sowing, FIGS. 1 to 14
  Growth and yield measurements compared with Comparative Example 4a (in words): better values
[4]; [17]
  Plant height Corn A: number relative to 100 of Comparative Example 5b: 91
  Root dry weight Corn A: number relative to 100 of Comparative Example 5b: 90
  Root length Corn A: number relative to 100 of Comparative Example 5b: 96
  Top dry weight Corn A: number relative to 100 of Comparative Example 5b: 83
[4]; [18]
  Plant height Corn: 37.0 cm
  Root dry weight Corn: 0.10 g
  Root length Corn: 17.3 cm
  Top dry weight Corn: 0.40 g
[4]; [19]
  Corn values compared with Comparative Example 5a (in words): better values
Soybean (Enrei); [17]
  Plant height Soybean A: number relative to 100 of Comparative Example 5b: 101
  Root dry weight Soybean A: number relative to 100 of Comparative Example 5b: 72
  Root length Soybean A: number relative to 100 of Comparative Example 5b: 105
  Top dry weight Soybean A: number relative to 100 of Comparative Example 5b: 91
Soybean (Enrei); [18]
  Plant height Soybean: 48.3 cm
  Root dry weight Soybean: 0.15 g
  Root length Soybean: 14.3 cm
  Top dry weight Soybean: 0.72 g
Soybean (Enrei); [19]
  Soybean values compared with Comparative Example 5a (in words): better values
[5]; [20]
  Largest root length Wheat A: number relative to 100 of Comparative Example 6b: 100
  Number of rooted individuals Wheat A: number relative to 100 of Comparative Example 6b: 104
  Plant height Wheat A: number relative to 100 of Comparative Example 6b: 98
  Root dry weight Wheat A: number relative to 100 of Comparative Example 6b: 94
  Top dry weight Wheat A: number relative to 100 of Comparative Example 6b: 96
[5]; [21]
  Largest root length Wheat: 18.3 cm
  Number of rooted individuals Wheat: 8.0 Number
  Plant height Wheat: 29.3 cm
  Root dry weight Wheat: 0.034 g
  Top dry weight Wheat: 0.059 g
[5]; [19]
  Number of rooted individuals, plant height and root dry weight compared with Comparative Example 6a (in words): better
